What all share (type): cell-based
For experiment [1], the system named is mPTP-active Daoy cell. The experiment in a line: Cell viability (Promega CellTiter-Glo), IC50 on mPTP-active Daoy cell. Particulars: Homo sapiens; Daoy cell transfected with empty virus vector.
Experiment [2] has as its system mPTP-inactive Daoy cell. The experiment in a line: Cell viability (Promega CellTiter-Glo), IC50 on mPTP-inactive Daoy cell (PPIF shRNA). Particulars: Homo sapiens; Daoy cell transfected with PPIF shRNA vector. (In general: Cellular ATP, detected with luciferase, serves as a proxy for viable cell number.)
Experiment [3] concerns Con-NCI-H82 cell. The experiment in a line: Cell viability (Promega CellTiter-Glo, intracellular ATP), IC50 on Con-NCI-H82 cell. Particulars: Homo sapiens; normal untreated NCI-H82 cell (control). From the text:
(§1) The expression of NNMT protein in NCI-H82 cell was overexpressed by inserting the NNMT gene into NCI-H82 cell using a viral vector, and the NNMT protein-overexpressing NCI-H82 cell (ov-NNMT NCI-H82 cell) was obtained. The normal and untreated NCI-H82 cell (Con-NCI-H82 cell) was used as control. The expressing content of NNMT protein in the ov-NNMT NCI-H82 cell and Con-NCI-H82 cell was detected using Western Blot assay (as shown in FIG. 1), it could be seen from FIG. 1 that the NNMT protein was overexpressed in the ov-NNMT NCI-H82 cell compared with the expression level of NNMT protein in the Con-NCI-H82 cell.
(§2) The cell viability was detected using the Promega CellTiter-Glo kit which reflected cell viability by measuring intracellular ATP content. The Con-NCI-H82 cell and ov-NNMT NCI-H82 cell was cultured in 10% fetal bovine serum-containing RPMI1640 medium (+P/S).

Experiment [4] has as its system ov-NNMT NCI-H82 cell. Put plainly: Cell viability (Promega CellTiter-Glo, intracellular ATP), IC50 on NNMT-overexpressing NCI-H82 cell. The settings on record: Homo sapiens; NCI-H82 cell overexpressing NNMT protein.
Text: as §1, §2

SMILES strings stand for the structures.

The IC50 is the point on the concentration scale where inhibition reaches its midpoint. A high value points to a need for much substance. Turning to `Cc1ccc(C(=O)C[n+]2ccc3c(c2)CCN3Cc2ccccc2)cc1` [AB24995], the IC50 was determined as 6.32 µM in experiment [1], 1.98 µM in experiment [2], 0.92 µM in experiment [3] and 4.15 µM in experiment [4].
On the same counts, the results for `O=C1c2ccc(OC(F)(F)F)cc2CCC1[n+]1ccc2c(ccn2Cc2ccccc2)c1` (stereo not drawn) [AB24997] are 8.56 µM, 2.34 µM, 0.498 µM and 3.12 µM.
On the same counts, the results for `O=C1c2ccc(OC(F)(F)F)cc2CCC1[n+]1ccc2c(c1)CC(c1ccccc1)N2` (stereo not drawn) [AB27101] are 5.68 µM, 1.93 µM, 0.75 µM and 2.31 µM.
As to `O=C(C[n+]1ccc2c(c1)CCC(c1ccccc1)N2)c1ccc(OC(F)(F)F)cc1` (stereo not drawn) [AB27103], the IC50 in experiment [1] was 8.98 µM; in experiment [2], 4.09 µM; in experiment [3], 1.48 µM; in experiment [4], 11 µM.
The like results for `O=C1c2cc(OC(F)(F)F)ccc2CCC1[n+]1ccc2c(c1)CCC(c1ccccc1)N2` (stereo not drawn) [AB27132] were, in that order, 7.95 µM, 3.27 µM, 0.917 µM and 4.87 µM.
Take `O=C1c2cc(Cl)ccc2CCC1[n+]1ccc(NCc2ccccc2)nc1` (stereo not drawn) [AB27138]: the IC50 is 8.82 µM in experiment [1], 3.62 µM in experiment [2], 1.1 µM in experiment [3] and 9.82 µM in experiment [4].
Turning to `O=C1c2cc(Cl)ccc2CCC1[n+]1cnc2c(ccn2Cc2ccccc2)c1` (stereo not drawn) [AB27140], the concentration for half-maximal inhibition (IC50) was determined as 3.66 µM in experiment [1], 1.48 µM in experiment [2], 0.182 µM in experiment [3] and 1.58 µM in experiment [4].
Regarding `CCc1cn(Cc2ccccc2)c2cc[n+](C3CCc4ccc(Cl)cc4C3=O)cc12` (stereo not drawn) [AB27171], the half-inhibitory concentration (IC50) stood at 1.94 µM in experiment [1], 0.69 µM in experiment [2], 0.063 µM in experiment [3] and 1.05 µM in experiment [4].
Consider `O=C1c2cc(Cl)ccc2CCC1[n+]1ccc2c(c1)c(Cl)cn2Cc1ccccc1` (stereo not drawn) [AB27172], for which the IC50 in experiment [1] is 3.94 µM; in experiment [2] it was 1.38 µM; in experiment [3], 0.203 µM; in experiment [4], 2.04 µM.
For `O=C1c2cc(Cl)ccc2CCC1[n+]1ccc2c(c1)c(F)cn2Cc1ccccc1` (stereo not drawn) [AB27173], the IC50 came out at 3.43 µM in experiment [1], 1.02 µM in experiment [2], 0.135 µM in experiment [3] and 2.03 µM in experiment [4].
For `Cc1cn(Cc2ccccc2)c2cc[n+](C3CCc4ccc(OC(F)(F)F)cc4C3=O)cc12` (stereo not drawn) [AB27175], the IC50 in experiment [1] was determined as 3.86 µM; in experiment [2], 1.23 µM; in experiment [3] it was 0.226 µM; in experiment [4] it was 2.86 µM.
Regarding `Cc1ccc2c(c1)CCC(n1ccc3c[n+](C(C)c4ccccc4)ccc31)C2` (stereo not drawn) [AB27181], the IC50 worked out at 0.19 µM in experiment [1], 0.07 µM in experiment [2], 0.017 µM in experiment [3] and 0.245 µM in experiment [4].
As to `O=C1c2cc(Cl)ccc2CCC1n1ccc2c[n+](Cc3ccccc3)ccc21` (stereo not drawn) [AB27187], the IC50 is 0.21 µM in experiment [1], 0.05 µM in experiment [2], 0.014 µM in experiment [3] and 0.252 µM in experiment [4].
On the same counts, the results for `Cc1cn(C2CCc3ccc(Cl)cc3C2=O)c2cc[n+](Cc3ccccc3)cc12` (stereo not drawn) [AB27188] are 0.23 µM, 0.04 µM, 0.014 µM and 0.214 µM.
`O=C1c2cc(C(F)(F)F)ccc2CCC1n1ccc2c[n+](Cc3ccccc3)ccc21` (stereo not drawn) [AB27190]: the concentration for half-maximal inhibition (IC50) in experiment [1] turned out to be 0.13 µM; in experiment [2] it was 0.04 µM; in experiment [3], 0.013 µM; in experiment [4], 0.182 µM.
For the compound `O=C1c2cc(OC(F)(F)F)ccc2CCC1n1ccc2c[n+](Cc3ccccc3)ccc21` (stereo not drawn) [AB27191], the 50% inhibitory concentration (IC50) in experiment [1] turned out to be 0.25 µM; in experiment [2], 0.04 µM; in experiment [3], 0.01 µM; in experiment [4], 0.184 µM.
On to `Cc1ccc2c(c1)C(=O)C(n1ccc3c[n+](Cc4ccccc4)ccc31)CC2` (stereo not drawn) [AB27192], for which the IC50 turned out to be 0.19 µM in experiment [1], 0.03 µM in experiment [2], 0.012 µM in experiment [3] and 0.214 µM in experiment [4].
Turning to `Cc1ccc2c(c1)CCC(n1ccc3c[n+](Cc4ccccc4)ccc31)C2=O` (stereo not drawn) [AB27193], the concentration for half-maximal inhibition (IC50) in experiment [1] worked out at 0.17 µM; in experiment [2], 0.03 µM; in experiment [3] it was 0.009 µM; in experiment [4], 0.154 µM.
`O=C1c2cc(Cl)ccc2CCC1[n+]1ccc2cn(-c3ccccc3)cc2c1` (stereo not drawn) [AB27196]: the 50% inhibitory concentration (IC50) was found to be 6.57 µM in experiment [1], 2.08 µM in experiment [2], 0.577 µM in experiment [3] and 5.51 µM in experiment [4].
On the same counts, the results for `O=C1c2cc(Cl)ccc2CCC1[n+]1ccc2cn(Cc3ccccc3)cc2c1` (stereo not drawn) [AB27197] are 3.57 µM, 1.02 µM, 0.174 µM and 1.7 µM.
`CN1c2nc[n+](C3CCc4ccc(Cl)cc4C3=O)cc2CCC1c1ccccc1` (stereo not drawn) [AB27198]: the concentration for half-maximal inhibition (IC50) in experiment [1] came out at 7.55 µM; in experiment [2], 1.89 µM; in experiment [3], 0.7 µM; in experiment [4], 3.55 µM.
With `O=C1c2sccc2CCC1[n+]1ccc2c(ccn2Cc2ccccc2)c1` (stereo not drawn) [AB27200], the IC50 is 6.03 µM in experiment [1], 2.15 µM in experiment [2], 1.12 µM in experiment [3] and 5.68 µM in experiment [4].
On the same counts, the results for `Cc1c2ccn(Cc3ccccc3)c2cc[n+]1C1CCc2ccc(Cl)cc2C1=O` (stereo not drawn) [AB27219] are 5.09 µM, 2.12 µM, 0.085 µM and 1.32 µM.
`CC(=O)N(Cc1ccccc1)c1cc[n+](CC(=O)c2ccc(C)cc2)c(C)c1` [AB27222]: the IC50 came to 1.75 µM in experiment [1], 0.66 µM in experiment [2], 0.056 µM in experiment [3] and 0.857 µM in experiment [4].
Regarding `CC(=O)N(Cc1ccccc1)c1cc[n+](C2CCc3ccc(Cl)cc3C2=O)cc1` (stereo not drawn) [AB27230], the IC50 in experiment [1] is 2.92 µM; in experiment [2], 0.92 µM; in experiment [3], 0.126 µM; in experiment [4], 1.26 µM.
On to `CCCCn1ccc2c[n+](C3CCc4ccc(Cl)cc4C3=O)ccc21` (stereo not drawn) [AB27251], for which the concentration for half-maximal inhibition (IC50) in experiment [1] turned out to be 7.89 µM; in experiment [2], 1.96 µM; in experiment [3] it was 0.482 µM; in experiment [4], 2.69 µM.
Turning to `Cc1cn(C2CCc3ccc(OC(F)(F)F)cc3C2=O)c2cc[n+](C(C)c3ccccc3)cc12` (stereo not drawn) [AB27469], the IC50 in experiment [3] worked out at 0.427 µM; in experiment [4], 5.43 µM.
As to `Cc1cc2c[n+](Cc3ccccc3)ccc2n1C1CCc2ccc(F)cc2C1=O` (stereo not drawn) [AB27473], the IC50 in experiment [3] worked out at 0.081 µM; in experiment [4], 1.21 µM.
On the same counts, the results for `O=C1c2cc(F)ccc2CCC1[n+]1ccc2cn(Cc3ccccc3)cc2c1` (stereo not drawn) [AB27477] are 0.164 µM and 1.98 µM.
Take `Cc1cn(CC(=O)c2cccc(F)c2)c2cc[n+](Cc3ccccc3)cc12` [AB27478]: the IC50 in experiment [3] was 0.023 µM; in experiment [4], 0.283 µM.
Regarding `Cc1cn(CC(=O)c2cccc(F)c2)c2cc[n+](C(C)c3ccccc3)cc12` (stereo not drawn) [AB27479], the half-maximal inhibitory concentration (IC50) in experiment [3] amounted to 0.258 µM; in experiment [4], 2.05 µM.
As for `CC(c1ccccc1)n1cc2cc[n+](C3CCc4ccc(F)cc4C3=O)cc2c1` (stereo not drawn) [AB27480], the half-inhibitory concentration (IC50) in experiment [3] was found to be 0.181 µM; in experiment [4] it was 2.33 µM.
On to `Cc1ccc(C(=O)C[n+]2cc3c(cc2Cl)c(Cc2ccccc2)cn3C)cc1` [AB27482], for which the IC50 in experiment [3] was found to be 3.42 µM; in experiment [4], 9.57 µM.
The like results for `Cc1c(Cl)c2c[n+](Cc3ccccc3)ccc2n1CC(=O)c1cccc(C(F)(F)F)c1` [AB27484] were, in that order, 1.19 µM and 8.03 µM.
Turning to `Cc1c(Cl)c2c[n+](Cc3ccccc3)ccc2n1C1CCc2ccc(Cl)cc2C1=O` (stereo not drawn) [AB27485], the IC50 in experiment [3] turned out to be 0.504 µM; in experiment [4], 7.1 µM.
Take `O=C(Cn1c(Br)cc2c[n+](Cc3ccccc3)ccc21)c1cccc(C(F)(F)F)c1` [AB27490]: the IC50 came out at 0.019 µM in experiment [3] and 0.319 µM in experiment [4].
For the compound `Cc1c(C)n(CC(=O)c2cccc(C(F)(F)F)c2)c2cc[n+](Cc3ccccc3)cc12` [AB27493], the IC50 in experiment [3] amounted to 0.281 µM; in experiment [4] it was 3.45 µM.
Turning to `O=C(Cn1ncc2c[n+](Cc3ccccc3)ccc21)c1cccc(C(F)(F)F)c1` [AB27499], the 50% inhibitory concentration (IC50) was 0.921 µM in experiment [3] and 6.84 µM in experiment [4].
As for `O=C(Cn1cnc2c[n+](Cc3ccccc3)ccc21)c1cccc(OC(F)(F)F)c1` [AB31702], the half-maximal inhibitory concentration (IC50) in experiment [3] was 5.46 µM; in experiment [4], 17.5 µM.
Regarding `O=C(Cn1cnc2c[n+](Cc3ccccc3)ccc21)c1cccc(C(F)(F)F)c1` [AB31703], the concentration for half-maximal inhibition (IC50) worked out at 2.15 µM in experiment [3] and 12.3 µM in experiment [4].
Consider `O=C(Cn1ncc2c[n+](Cc3ccccc3)ccc21)c1ccc(C(F)(F)F)cc1` [AB31705], for which the figures for the IC50 in experiment [3] and in experiment [4] were 5.37 µM and 19 µM, respectively.
With `Cc1ccc2c(c1)C(=O)C(n1ncc3c[n+](Cc4ccccc4)ccc31)CC2` (stereo not drawn) [AB31776], the 50% inhibitory concentration (IC50) in experiment [3] came to 0.146 µM; in experiment [4], 2.55 µM.
Turning to `CC(c1ccccc1)[n+]1ccc2c(cnn2C2CCc3ccc(Cl)cc3C2=O)c1` (stereo not drawn) [AB31806], the half-maximal inhibitory concentration (IC50) in experiment [3] amounted to 0.257 µM; in experiment [4] it was 2.96 µM.
